The results in this text go back to PMC7265434, “Zika Virus NS3 Protease Pharmacophore Anchor Model and Drug Discovery” (Scientific Reports, 2020).

The target of this assay is T1, ZIKV NS2B/NS3 protease (Zika virus, UniProt Q32ZE1).
T1 construct: cut from ZIKV genome polyprotein
The experiment in a line: fluorogenic protease assay, AMC release. The class given is biochemical.

T1 sequence (Q32ZE1 1499-1668): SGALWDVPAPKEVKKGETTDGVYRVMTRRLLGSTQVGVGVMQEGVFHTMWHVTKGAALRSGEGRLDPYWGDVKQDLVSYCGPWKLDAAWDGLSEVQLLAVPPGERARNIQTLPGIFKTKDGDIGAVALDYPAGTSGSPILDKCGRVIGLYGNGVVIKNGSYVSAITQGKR
T1 sequence (Q32ZE1 1417-1463): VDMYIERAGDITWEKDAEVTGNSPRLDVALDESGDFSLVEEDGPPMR

Molecule `C=C[C@@H]1C[C@]1(NC(=O)[C@@H]1C[C@@H](Oc2ncc(OC)c3ccc(Cl)cc23)CN1C(=O)[C@@H](NC(=O)OC(C)(C)C)C(C)(C)C)C(=O)NS(=O)(=O)C1CC1` [Asunaprevir] registered an IC50 of 6 µM.
`COc1ccc2c(O[C@@H]3C[C@H]4C(=O)N[C@]5(C(=O)NS(=O)(=O)C6CC6)C[C@H]5/C=C\CCCCN(C)C(=O)[C@@H]4C3)cc(-c3nc(C(C)C)cs3)nc2c1C` [Simeprevir]: the IC50 was determined as 2.6 µM.
